Measured values: article PMC5877348, “Presence of a Haloarchaeal Halorhodopsin-Like Cl^− Pump in Marine Bacteria” (Microbes and Environments, 2018)

Assays:
[1] = target: T1, RmHR (Rubricoccus marinus halorhodopsin) (Rubricoccus marinus, UniProt A0A259U296); test: biochemical; parameters: gene BSZ36_14690
[2] = target: T1, RmHR (Rubricoccus marinus halorhodopsin); test: normal-phase HPLC of extracted retinal oxime; format: binding; parameters: gene BSZ36_14690; full-length codon-optimised synthetic gene in pET21a, C-terminal His6; expressed in E. coli, DDM-solubilised, purified; settings: covalent (Schiff base); 1 M NaCl, 25°C, dark or illuminated at 540 nm; retinal supplied during expression

T1 sequence (A0A259U296 entry or part of it): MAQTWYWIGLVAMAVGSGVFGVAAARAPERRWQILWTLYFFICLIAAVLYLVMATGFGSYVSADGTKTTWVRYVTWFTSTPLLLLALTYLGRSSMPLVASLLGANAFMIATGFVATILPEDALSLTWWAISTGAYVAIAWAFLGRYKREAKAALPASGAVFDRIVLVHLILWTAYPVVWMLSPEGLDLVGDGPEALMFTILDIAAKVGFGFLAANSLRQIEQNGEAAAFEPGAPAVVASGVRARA

Row | Structure (SMILES) | Kd [1] [mM] | normal-phase HPLC of extracted retinal oxime [2]
1 | Cl [Cl^−] | 7.6 ± 1.7 | 
2 | CC1=C(/C=C/C(C)=C/C=C/C(C)=C/C=O)C(C)(C)CCC1 [all-trans-retinal] |  | RmHR predominantly possesses all-trans retinal as a chromophore
